Experimental findings from ChEMBL document CHEMBL5241077 (Eur J Med Chem, 2021) are described below.

≈ marks a conversion by molar mass, not a printed value.

The test system of test [1] is dengue virus type 2. The test is described as follows: Antiviral activity against DENV2 TSV01 infected in Asian tiger mosquito C6/36 cells assessed as reduction in plaque forming unit incubated for 1 hrs by propidium iodide staining based fluorescence analysis. The test is classed as functional, organism-based. As to conditions: TSV01, C6/36, 1 h.
In test [2] the test system is dengue virus type 2. As to the kind of experiment: Antiviral activity against DENV2 infected hamster BHK cells assessed as inhibition of virus-induced cytopathogenicity and measured after 20 hrs by flow cytometry. Format: functional, organism-based. (In general: Damage to the host cells serves as the signal in cytopathic effect assays.)
In test [3] the test system is dengue virus type 2. The test is described as follows: Antiviral activity against DENV2 PL046 infected in hamster BHK-21 cells assessed as reduction in plaque forming unit incubated for 7 days by crystal violet staining analysis. The test is classed as functional, organism-based. The conditions noted are these: PL046, BHK-21, 168 h.
Test [4] concerns dengue virus type 2. As to the kind of experiment: Antiviral activity against DENV2 infected in African green monkey Vero E6 cells assessed as inhibition of viral replication incubated for 5 days by crystal violet staining based plaque reduction assay. Format: functional, organism-based. The conditions noted are these: 120 h.
Test [5] has as its system dengue virus type 2. As to the kind of experiment: Antiviral activity against DENV2 […] infected in hamster BHK-21 cells assessed as reduction viral titer incubated for 48 hrs by plaque assay. Format: functional, organism-based. The conditions noted are these: BHK-21, 48 h.
Test [6] deals with dengue virus type 2. As to the kind of experiment: Antiviral activity against DENV2 New Guinea C infected in hamster BHK-21 cells assessed as reduction viral titer incubated for 48 hrs by plaque assay. Format: functional, organism-based. The conditions noted are these: BHK-21, 48 h.
Test [7] deals with dengue virus type 2. The test is described as follows: Antiviral activity against DENV2 ThNH-7/93 infected in hamster BHK-21 cells assessed as reduction in virus titer incubated for 2 hrs by focus forming assay. The conditions noted are these: ThNH-7/93, BHK-21, 2 h. The test is classed as functional, organism-based.
The test system of test [8] is dengue virus type 2. The test is described as follows: Antiviral activity against DENV2 infected in human HEK293 cells assessed as reduction in viral load incubated for 3 days by plaque reduction assay. The test is classed as functional. As to conditions: HEK293, 72 h, time 3 day. (Plaque reduction counts the foci of infection that form in a cell layer.)
Test [9] deals with dengue virus type 2. The test is described as follows: Antiviral activity against DENV2 ThNH-7/93 infected in hamster BHK-21 cells assessed as reduction in viral entry incubated for 2 hrs by focus forming assay. As to conditions: ThNH-7/93, BHK-21, 2 h. The test is classed as functional, organism-based.
Test [10] is described as follows: Binding affinity to Dengue virus serotype 2 envelope stem (419 to 447 residues) trimer peptide incubated for 3 hrs by fluorescence polarization assay. Details: species or system dengue virus type 2.
The test system of test [11] is dengue virus type 2. The test is described as follows: Antiviral activity against DENV2 16681 infected in African green monkey Vero E6 cells assessed as inhibition of virus-induced cytopathic effect incubated for 1.5 hrs by plaque assay. Format: functional, organism-based. The conditions noted are these: Dengue virus, 16681, Vero.
Test [12] relates to dengue virus type 2. As to the kind of experiment: Antiviral activity against DENV2 infected in African green monkey Vero E6 cells assessed as inhibition of viral titer incubated for 48 hrs by plaque reduction assay. The test is classed as functional, organism-based.

In general, IC50 refers to the point on the concentration scale where inhibition reaches its midpoint. As to `O=C(O)c1cc(=O)c2ccc(S[C@@H](/C=C/C=C/CCOc3ccc(Cl)c(Cl)c3)[C@H](O)c3cccc(C(F)(F)F)c3)cc2o1`, in the test on dengue virus type 2 [1], the IC50 worked out at 6.8 µM.
The EC50 is the concentration at which the effect is half-maximal. As for `O=P(O)(O)OC[C@H]1O[C@H](OC2[C@H](OS(=O)(=O)O)[C@@H](OC3C(OS(=O)(=O)O)O[C@H](COS(=O)(=O)O)[C@@H](OS(=O)(=O)O)[C@@H]3OS(=O)(=O)O)O[C@H](COS(=O)(=O)O)[C@H]2OS(=O)(=O)O)[C@@H](OS(=O)(=O)O)[C@@H](OS(=O)(=O)O)[C@@H]1OS(=O)(=O)O` (stereo not given in full), the EC50 with dengue virus type 2 [2] worked out at 200 µg/mL (≈ 144 µM).
As to `CN(C)[C@@H]1C(O)=C(C(=O)NCN2CCCC2)C(=O)[C@@]2(O)C(O)=C3C(=O)c4c(O)cccc4[C@@](C)(O)[C@H]3C[C@@H]12` [ROLITETRACYCLINE], in the test with dengue virus type 2 [3], the IC50 stood at 67.1 µM.
As for `O=C1O[C@H]2[C@@H]3OC(=O)c4cc(O)c(O)c(O)c4-c4c(cc(O)c(O)c4O)C(=O)OC[C@H]2O[C@@H](OC(=O)c2cc(O)c(O)c(O)c2)[C@@H]3OC(=O)c2cc(O)c(O)c3c2[C@@H]2C1=CC(=O)[C@](O)(O3)C2(O)O` [GERANIIN], the IC50 with dengue virus type 2 [4] is 1.75 µM.
Consider `C[C@H]1c2cccc(O)c2C(=O)C2=C(O)[C@]3(O)C(=O)C(C(N)=O)=C(O)[C@@H](N(C)C)[C@@H]3[C@@H](O)[C@@H]21` [DOXYCYCLINE], for which, in the test with dengue virus type 2 [3], the IC50 was 55.6 µM.
Turning to `CC(=O)N[C@@H]1[C@@H](O[C@@H]2O[C@@H](C(=O)O)[C@@H](O)[C@H](O)[C@H]2O)[C@@H](OS(=O)(=O)O)[C@@H](CO)O[C@H]1O`, the figures for the IC50 with dengue virus type 2 [5] and with dengue virus type 2 [6] were 0.3 µg/mL (≈ 0.628 µM) and 3 µg/mL (≈ 6.28 µM), respectively.
As for `C[C@@H]1O[C@H](C)[C@@H](O)[C@H](O)[C@@H]1OS(=O)(=O)O`, the IC50 in the test on dengue virus type 2 [7] amounted to 4.7 µg/mL (≈ 19.4 µM).
One may read the IC90 as the concentration needed for an effect of 90%. Regarding `Nc1c(C(=O)Nc2nc(-c3ccccc3)cs2)sc2nc3c(cc12)CN(c1ccccc1)CC3`, the IC90 in the test with dengue virus type 2 [8] worked out at 0.025 µM.
For the compound `CC(=O)N[C@@H]1[C@@H](O[C@@H]2O[C@H](C(=O)O)[C@@H](O)[C@H](O)[C@H]2O)[C@@H](O)[C@@H](OS(=O)(=O)O)O[C@H]1O`, the EC50 in the test on dengue virus type 2 [9] came to 1.5 µg/mL (≈ 3.24 µM).
In the case of `N#C/C(=N\Nc1cccc(Cl)c1)C(=O)c1ccco1`, the IC50 in [10] worked out at 15 µM.
On to `O=C(O)C[C@@H]1C(=O)O[C@H]2[C@@H]3OC(=O)c4cc(O)c(O)c(O)c4-c4c(cc(O)c(O)c4O)C(=O)OC[C@H]2O[C@@H](OC(=O)c2cc(O)c(O)c(O)c2)[C@@H]3OC(=O)c2cc(O)c(O)c3c2[C@H]1[C@H](O)C(=O)O3` [CHEBULAGIC ACID], for which the EC50 in the test on dengue virus type 2 [11] turned out to be 13.1 µM.
Consider `O=S(=O)(O)O[C@@H]1[C@@H](OS(=O)(=O)O)[C@H](O[C@@H]2CO[C@@H](O)[C@H](OS(=O)(=O)O)[C@H]2OS(=O)(=O)O)OC[C@H]1O`, for which the EC50 in the test on dengue virus type 2 [2] is 30 µg/mL (≈ 49.8 µM).
Take `Nc1c(C(=O)Nc2nc(-c3ccccc3)cs2)sc2nc3c(cc12)CC(c1ccccc1)CC3` (stereo not given): the IC90 with dengue virus type 2 [8] is 0.112 µM.
On to `CO[C@H]1O[C@H](COS(=O)(=O)O)[C@H](O[C@@H]2O[C@H](CO)[C@H](O)[C@H](C)[C@H]2OS(=O)(=O)O)[C@H](O)[C@H]1OS(=O)(=O)O`, for which the IC50 with dengue virus type 2 [12] was determined as 0.14 µg/mL (≈ 0.235 µM).
